# Reference: patent EP4729513A1, “A-KETO ACID AMIDE OR SUBSTITUTED OXALIC ACID AMIDE ESTER COMPOUND AND COMPOSITION THEREOF” (Nanjing Chempion Biotechnology Co., Ltd., priority 2023, dated 2025)
# Molecular target: T1, human TYR (Homo sapiens, UniProt P14679)
# T1 sequence (P14679 19-529): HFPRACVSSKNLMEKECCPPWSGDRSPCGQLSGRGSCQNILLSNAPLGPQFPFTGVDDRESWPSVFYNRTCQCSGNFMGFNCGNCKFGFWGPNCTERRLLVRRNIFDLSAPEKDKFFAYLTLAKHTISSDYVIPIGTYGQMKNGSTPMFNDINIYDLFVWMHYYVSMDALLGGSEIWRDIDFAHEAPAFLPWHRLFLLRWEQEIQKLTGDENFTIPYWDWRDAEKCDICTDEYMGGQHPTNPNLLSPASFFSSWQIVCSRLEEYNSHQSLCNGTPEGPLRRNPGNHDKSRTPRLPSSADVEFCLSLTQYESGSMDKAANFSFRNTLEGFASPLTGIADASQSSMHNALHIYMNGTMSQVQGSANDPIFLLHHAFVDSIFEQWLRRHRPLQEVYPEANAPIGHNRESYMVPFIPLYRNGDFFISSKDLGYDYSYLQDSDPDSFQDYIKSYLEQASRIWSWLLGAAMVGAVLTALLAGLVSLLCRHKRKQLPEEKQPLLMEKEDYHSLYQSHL
# Experiment: TYR inhibitory activity by modified MBTH (3-methyl-2-benzothiazolinone hydrazine) method
# Format: biochemical
# Conditions: compound concentration 2 µg/mL; levodopa oxidized by human TYR, MBTH chromogenic reagent, absorbance at 505 nm
# Protocol: A TYR inhibitory activity of a compound was assessed by a 3-methyl-2-benzothiazolinone hydrazine (MBTH) method modified with reference to the existing report (Journal of Biochemical and Biophysical Methods, 1994, 28 (3): 173-183). With MBTH as a chromogenic reagent, an inhibitory activity of a compound against human TYR was determined as follows: Levodopa was oxidized into L-dopaquinone by the human TYR. MBTH was then allowed to undergo a reaction with the L-dopaquinone to produce a colored product. The reaction was terminated, and the specific absorbance of the colored product at 505 nm was measured.
row,SMILES,inhibition at 2 µg/mL
1,"CC(C)C(=O)C(=O)Nc1nc(-c2ccc(O)cc2O)cs1 [N-(4-(2,4-dihydroxyphenyl)thiazol-2-yl)-3-methyl-2-oxobutanamide]",78.5%
2,"O=C(Nc1nc(-c2ccc(O)cc2O)cs1)C(=O)C1CCCCC1 [2-cyclohexyl-N-(4-(2,4-dihydroxyphenyl)thiazol-2-yl)-2-oxoacetamide]",65%
3,"O=C(Nc1nc(-c2ccc(O)cc2O)cs1)C(=O)OC1CC1 [Cyclopropyl 2-((4-(2,4-dihydroxyphenyl)thiazol-2-yl)amino)-2-oxoacetate]",85.8%
4,"CC(C)NC(=O)C(=O)Nc1nc(-c2ccc(O)cc2O)cs1 [N-(4-(2,4-dihydroxyphenyl)thiazol-2-yl)-N'-isopropyloxalamide]",96.7%
5,"CCN(CC)C(=O)C(=O)Nc1nc(-c2ccc(O)cc2O)cs1 [N-(4-(2,4-dihydroxyphenyl)thiazol-2-yl)-N',N'-diethyloxalamide]",89.2%
6,"CCOC(=O)C(=O)Nc1nc(-c2ccc(O)cc2O)cs1 [Ethyl 2-((4-(2,4-dihydroxyphenyl)thiazol-2-yl)amino)-2-oxoacetate]",89.6%

# Next, values leading:
row,inhibition at 2 µg/mL,SMILES
1,90.7%,"CN(C)C(=O)C(=O)Nc1nc(-c2ccc(O)cc2O)cs1 [N-(4-(2,4-dihydroxyphenyl)thiazol-2-yl)-N',N'-dimethyloxalamide]"
2,86.1%,"O=C(Nc1nc(-c2ccc(O)cc2O)cs1)C(=O)N1CCOCC1 [N-(4-(2,4-dihydroxyphenyl)thiazol-2-yl)-2-morpholino-2-oxoacetamide]"
3,90%,"CCC(=O)C(=O)Nc1nc(-c2ccc(O)cc2O)cs1 [N-(4-(2,4-dihydroxyphenyl)thiazol-2-yl)-2-oxobutanamide]"
4,93.5%,"O=C(Nc1nc(-c2ccc(O)cc2O)cs1)C(=O)N1CCCC1 [N-(4-(2,4-Dihydroxyphenyl)thiazol-2-yl)-2-oxo-2-(pyrrolidin-1-yl)oxalamide]"
5,76.5%,"O=C(Nc1nc(-c2ccc(O)cc2O)cs1)C(=O)N1CCSCC1 [N-(4-(2,4-dihydroxyphenyl)thiazol-2-yl)-2-thiomorpholin-2-oxoacetamide]"
6,92.6%,"CC(=O)C(=O)Nc1nc(-c2ccc(O)cc2O)cs1 [N-(4-(2,4-dihydroxyphenyl)thiazol-2-yl)-2-oxopropanamide]"
7,88.1%,"COC(=O)C(=O)Nc1nc(-c2ccc(O)cc2O)cs1 [Methyl 2-((4-(2,4-dihydroxyphenyl)thiazol-2-yl)amino)-2-oxoacetate]"
8,75.3%,"O=C(Nc1nc(-c2ccc(O)cc2O)cs1)C(=O)C1CC1 [2-cyclopropyl-N-(4-(2,4-dihydroxyphenyl)thiazol-2-yl)-2-oxoacetamide]"
